Values joined by “and” are separate entries in the source; they are usually repeats but may differ in a detail not shown here. Equal entries are not always repeated. Bounds are passed on as bounds.

Holding throughout (type): binding
For one assay, the target named is T1, BAZ2A (Homo sapiens, UniProt Q9UIF9).
T1 construct: Recombinant BAZ2A and BAZ2B bromodomains were expressed in; made in house; host or cells: E. coli
T1 sequence (Q9UIF9 1793-1897 limits assumed): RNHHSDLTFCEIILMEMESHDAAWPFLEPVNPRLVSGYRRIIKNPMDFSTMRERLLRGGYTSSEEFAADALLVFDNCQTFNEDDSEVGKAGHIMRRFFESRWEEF
Kind of assay: AlphaScreen assay BAZ2A. Particulars: average of three replicates ± SEM. As for the experimental part:
(§1) AlphaScreen: AlphaScreen was performed as described previously 10, with minor modifications from the manufacturers protocol (PerkinElmer, USA). Briefly, all reagents were diluted in the recommended buffer (50 mM HEPES, 100 mM NaCl, 0.1% BSA; pH = 7.4) supplemented with 0.05% CHAPS and allowed to equilibrate to room temperature prior to […]
(§2) Plates were sealed and incubated at room temperature for 30 min. 4 μL of streptavidin-coated donor beads (10ug/mL final) and 4 μL of nickel chelate acceptor beads (10 μg/ml final) were then added under low light conditions. Plates were foil sealed to protect from light, incubated at room temperature for 60 min and read on a PHERAstar FS plate reader (BMG Labtech, Germany) using an AlphaScreen 680 excitation/570 emission filter set.
(§3) Fragments were dissolved in ethylene glycol to overcome sensitivity of the bromodomain assay to DMSO and allow compounds to be screened at mM concentrations. IC50 […]
(§4) measurements were taken over a 12 point 1:2 serial dilution of compound. IC50s were calculated in GraphPad Prism 5 (GraphPad Software, USA). […]
On the technique in general: In Alpha technology, singlet oxygen from a donor bead excites a nearby acceptor bead.

Assay [1] concerns the target T2, BRD9 (Homo sapiens, UniProt Q9H8M2).
T2 construct: ITC experiments using the bromodomain of BRD9
Nature of the assay: AlphaScreen cross screening BRD9. Particulars: average of three replicates ± SEM. As for the experimental part:
as §1, §2, §3, §4

Another assay concerns the target T3, BRD4(1) (Homo sapiens, UniProt O60885).
T3 construct: […]
Nature of the assay: AlphaScreen cross screening BRD4(1). The conditions noted are these: average of three replicates ± SEM. As to the method: as §1, §2, §3, §4

Assay [2] concerns the target T2, BRD9. Nature of the assay: Thermal stability shift assay BRD9. Particulars: inhibitor concentration 10 μM; read-out: temperature shift (ΔTm) BRD9.
For assay [3], the target named is T2, BRD9. Nature of the assay: Isothermal titration calorimetry BRD9. The conditions noted are these: ITC. As for the experimental part:
VP-ITC (MicroCal) at 15 °C.
reaction cell containing the inhibitors (15 µM). Integrated heat of the titrations after corrected
modifications from the manufacturers protocol (PerkinElmer, USA). Briefly, all reagents were
final) were then added under low light conditions. Plates were foil sealed to protect from […]
(Isothermal titration calorimetry measures the heat released or taken up as one component is titrated into another.)

A further assay addresses T4, TAF1L(2) (Homo sapiens, UniProt Q8IZX4).
T4 construct: the second bromodomain in TAF1L(2)
T4 sequence (Q8IZX4 1517-1626 limits assumed): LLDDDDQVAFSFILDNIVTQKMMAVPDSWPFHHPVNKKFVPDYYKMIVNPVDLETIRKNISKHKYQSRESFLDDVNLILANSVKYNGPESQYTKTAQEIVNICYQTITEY
Nature of the assay: Isothermal titration calorimetry TAF1L(2). Particulars: ITC. As to the method:
Thermal stability shift assays: The recombinant bromodomains at 2 µM were mixed with 10 µM inhibitors. The assays and data evaluation for melting temperatures were performed using a Real-Time PCR Mx3005p machine (Stratagene) and the protocols previously […]
Isothermal titration calorimetry: All calorimetric titration experiments were carried out on VP-ITC (MicroCal) at 15 °C. The buffer condition used was 20 mM HEPES, pH 7.5, 150 mM NaCl and 0.5 mM TCEP. Titration was performed by injecting the proteins (200 µM) into a […]
Integrated heat of the titrations after corrected for the heat of dilution were analysed using the Origin program. The corrected data were fitted to a single binding site model using a nonlinear least-square minimization algorithm, and the binding parameters including reaction enthalpy changes (ΔH), reaction […] changes (TΔS), equilibrium dissociation constants (KD), stoichiometry (n) were calculated.
AlphaScreen: AlphaScreen was performed as described previously 10, with minor modifications from the manufacturers protocol (PerkinElmer, USA). […]
Plates were sealed and incubated at room temperature for 30 min. […] Plates were foil sealed to protect from light, incubated at room temperature for 60 min and read on a PHERAstar FS plate reader (BMG Labtech, Germany) using an AlphaScreen 680 excitation/570 emission filter set. […]

T2 sequence (Q9H8M2 136-240): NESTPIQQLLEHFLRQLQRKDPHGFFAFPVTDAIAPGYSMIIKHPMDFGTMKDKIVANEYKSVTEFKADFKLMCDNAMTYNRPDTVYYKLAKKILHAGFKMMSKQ

A word on the IC50: it is the midpoint of a concentration-inhibition curve. Read a low IC50 as higher potency. On BAZ2A, `COc1cccc(-c2cc(C(C)=O)n3ccccc23)c1` [Compound 3, 1-(1-(3-Methoxyphenyl)indolizin-3-yl)ethanone] registered an IC50 above 30000 nM. Turning to `CC(=O)c1cc(-c2cccs2)c2ccccn12` [Compound 4, 1-(1-(Thiophen-2-yl)indolizin-3-yl)ethanone], on BAZ2A, the IC50 was 8600 ± 10 nM.

`CC(=O)c1cc(-c2ccccc2O)c2ccccn12` [Compound 5, 1-(1-(2-hydroxyphenyl)indolizin-3-yl)ethanone] showed an IC50 at BAZ2A of 7200 ± 60 nM.

Compound `CC(=O)c1cc(-c2cccc(O)c2)c2ccccn12` [Compound 6, 1-(1-(3-hydroxyphenyl)indolizin-3-yl)ethanone] gave an IC50 against BAZ2A of 3300 ± 50 nM.

As for `CC(=O)c1cc(-c2ccccc2CO)c2ccccn12` [Compound 7, 1-(1-(2-(hydroxymethyl)phenyl)indolizin-3-yl)ethanone], the results for the IC50 against BRD9 [1], on BAZ2A and against BRD4(1) were 23700 ± 160 nM, 1800 ± 50 nM and 38900 ± 13300 nM, respectively. As for `CC(=O)c1cc(-c2cccc(C(N)=O)c2)c2ccccn12` [Compound 8, 3-(3-acetylindolizin-1-yl)benzamide], the IC50 against BAZ2A stood at 1800 ± 20 nM. Compound `COc1ccc(-c2cc(C(C)=O)n3ccccc23)c(CO)c1` [Compound 9, 1-(1-(2-(hydroxymethyl)-4-methoxyphenyl)indolizin-3-yl)ethanone] displayed an IC50 on BAZ2A of 1400 ± 10 nM. In turn, `CC(=O)c1cc(-c2ccc(CO)cc2)c2ccccn12` [Compound 10, 1-(1-(4-(hydroxymethyl)phenyl)indolizin-3-yl)ethanone] gave an IC50 against BAZ2A of 1200 ± 70 nM. Still for that read-out and setting: in the case of `CC(=O)c1cc(-c2ccc(N(C)C)cc2)c2ccccn12` [Compound 11, 1-(1-(4-(dimethylamino)phenyl)indolizin-3-yl)ethanone] it was 1100 ± 70 nM. As for `CC(=O)c1cc(-c2ccccc2S(C)(=O)=O)c2ccccn12` [Compound 12, 1-(1-(2-(methylsulfonyl)phenyl)indolizin-3-yl)ethanone], the IC50 was 17900 ± 3850 nM on BRD9 [1], 720 ± 70 nM at BAZ2A and above 50000 nM against BRD4(1). Consider `CC(=O)c1cc(-c2ccccc2CO)c2cc(C)ccn12` [Compound 13, 1-(1-(2-(hydroxymethyl)phenyl)-7-methylindolizin-3-yl)ethanone], for which, at BAZ2A, the IC50 was 1000 ± 90 nM. On the same count and under the same terms, in the case of `COc1ccn2c(C(C)=O)cc(-c3ccccc3CO)c2c1` [Compound 14, 1-(1-(2-(hydroxymethyl)phenyl)-7-methoxyindolizin-3-yl)ethanone] it was 1200 ± 10 nM. The same measure, in the same setting: for `CC(=O)c1cc(-c2ccccc2CO)c2cc(N3CCOCC3)ccn12` [Compound 15, 1-(1-(2-(hydroxymethyl)phenyl)-7-morpholinoindolizin-3-yl)ethanone] the value was 1700 ± 130 nM; for `CC(=O)c1cc(-c2ccccc2CO)c2cc(C(N)=O)ccn12` [Compound 16, 3-acetyl-1-(2-(hydroxymethyl)phenyl)indolizine-7-carboxamide], 4100 ± 90 nM. The same measure, in the same setting: for `CC(=O)c1cc(-c2ccccc2CO)c2cc(Oc3ccccc3)ccn12` [Compound 17, 1-(1-(2-(hydroxymethyl)phenyl)-7-phenoxyindolizin-3-yl)ethanone] the value was 4100 ± 60 nM. Regarding `CC(=O)c1cc(-c2ccccc2S(C)(=O)=O)c2cc(CNC(=O)OC(C)(C)C)ccn12` [Compound 18, tert-butyl ((3-acetyl-1-(2-(methylsulfonyl)phenyl)indolizin-7-yl)methyl)carbamate], the figures for the IC50 against BRD9 [1], against BAZ2A and against BRD4(1) were 1400 ± 40 nM, 160 ± 50 nM and above 50000 nM, respectively.

What is called Kd is the equilibrium constant for the complex coming apart. A high value points to lower affinity. On to `CCCOc1ccn2c(C(C)=O)cc(-c3ccccc3S(C)(=O)=O)c2c1` [Compound 19, 1-(1-(2-(methylsulfonyl)phenyl)-7-propoxyindolizin-3-yl)ethanone], for which the ΔTm at 10 µM on BRD9 [2] amounted to 2.3 °C. Moreover, the IC50 at BRD9 [1] and at BRD4(1) was above 50000 nM in each case. In addition, on BRD9 [3], the “binding enthalpy change ΔH BRD9” value was −9.8 (±0.01) kcal/mol. Also, the Kd at BRD9 [3] (listed as GSK2801) was 1200 nM; at TAF1L(2) (listed as GSK2801), 3200 nM and 3190 nM. Further, the “binding enthalpy change ΔH TAF1L(2)” value at TAF1L(2) was −8.6 (±0.02) kcal/mol. Take `CC(=O)c1cc(-c2ccccc2S(C)(=O)=O)c2cc(Oc3ccccc3)ccn12` [Compound 20, 1-(1-(2-(methylsulfonyl)phenyl)-7-phenoxyindolizin-3-yl)ethanone]: the IC50 against BRD9 [1] is 19900 ± 1840 nM; against BAZ2A, 550 nM; against BRD4(1) it was above 50000 nM. The corresponding values for `COc1ccn2c(C(C)=O)cc(-c3ccccc3S(C)(=O)=O)c2c1` [Compound 21, 1-(7-methoxy-1-(2-(methylsulfonyl)phenyl)indolizin-3-yl)ethanone] are above 50000 nM, 580 ± 50 nM and above 50000 nM. Regarding `CC(=O)c1cc(-c2ccccc2S(C)(=O)=O)c2cc(C)ccn12` [Compound 22, 1-(7-methyl-1-(2-(methylsulfonyl)phenyl)indolizin-3-yl)ethanone], the IC50 on BAZ2A amounted to 890 nM.

The values above are taken from article PMC4770311, “Discovery and Characterization of GSK2801, a Selective Chemical Probe for the Bromodomains BAZ2A and BAZ2B” (Journal of Medicinal Chemistry, 2015).
